Values quoted from earlier work, collected in patent US10874753B2, “Radiopharmaceutical conjugate of a metabolite and an EPR agent, for targeting tumour cells” (The South African Nuclear Energy Corporation Limited, priority 2014, dated 2020).

Columns and labels:
folate receptors (FR) = conditions: binding to surface folate receptors (FR)
[1] = binding of Ga by N4O2 chelator

SMILES	Kd (folate receptors (FR))	stability constant [1]
Nc1nc(=O)c2nc(CNc3ccc(C(=O)N[C@@H](CCC(=O)O)C(=O)O)cc3)cnc2[nH]1 [Folate]	~1 nM	–
O=C(O)c1cccc(CNCCNCc2cccc(C(=O)O)n2)n1 [Cyclam H2dedpa, (1,2-bis{[[6-(carboxy)pyridine-2-yl]methyl]-amino}-ethane)]	–	28.1
